Type in all cases: cell-based, human
One experiment relates to G9a methylation. As to the kind of experiment: G9a methylation level in NALM6 cells treated with KDM inhibitors. The text has this: There are two distinct families of KDM with distinct catalytic mechanisms (FIG. 50B). We tested one inhibitor for each family: OG-L002 inhibits the two members of the LSD family of KDM, and JIB-04 inhibits several members of the large JmjC family of KDM, including members of the KDM2, KDM3, and KDM4 subfamilies. We propose that there is an equilibrium between the enzymes that methylate G9a and GLP (in this case they methylate themselves) and the KDM enzymes to maintain a moderate level of G9a/GLP methylation (FIGS. 50C-1, 50C-2), and that inhibition of the KDMs that normally demethylate G9a and GLP (currently unknown) will increase the level of G9a/GLP methylation and thereby enhance the coactivator activity of G9a/GLP, the GC activation of the cell death genes, and GC-induced cell death in B-ALL cells. Thus, as a first step to identify the G9a/GLP-specific demethylases, we treated NALM6 cells with the two inhibitors named above. OG-L002 had no effect on the level of G9a methylation, but JIB-04 increased the level of G9a methylation in NALM6 cells (FIG. 50D).

The subject of another experiment is NALM6 cells. As to the kind of experiment: Cell death assay (Presto Blue, 72 h) with dex plus inhibitor. The protocol: Cells were plated in CellStar low evaporation lid 96-well round-bottom plate at a density of 100,000 cells/ml. Directly after plating, cells were treated in triplicate with serial dilutions of dexamethasone or vehicle control (0.1% ethanol). After 72 h, cell viability of each well was analyzed in duplicate using the Presto Blue Assay Reagent (Life Technologies). Fluorescence was measured and data were analyzed with Prism6 software.
FIGS. 40A, 40B, 40C, 40D-1, 40D-2, 40D-3, and 40D-4 show Aurora kinase B inhibitors sensitizing NALM6 cells to GC-induced cell death. As shown in FIGS. 40A and 40B, NALM6 cells were treated with the indicated dex concentration in addition to 0.75 μM ZM447439 (FIG. 40A), 16 nM AZD2811 (FIG. 40B), or equivalent volume of vehicle DMSO for 72 h, and cell survival was measured by a fluorescence metabolic assay. In each condition, the value measured with dex was normalized to the fluorescence value measured with ethanol. Percentage of survival is shown as the mean±SEM of 4 independent experiments and p-values for individual dex concentrations were calculated using a paired t-test. *p≤0.05, **p≤0.01, * * *p≤0.001. F-test comparing the two curves: p≤0.001. Insets show the EC50s that were calculated as the concentration at which half the cells remained alive, compare to vehicle controls. Error bars depict the SEM of 4 independent experiments and p-values were calculated to compare AURKB inhibitor treatment to DMSO using a paired t-test ** p≤0.01, * * *p≤0.001. […] The indicated proteins were then examined by immunoblot. As shown in FIGS. 40D-1, 40D-2, 40D-3, and 40D-4, NALM6 cells pre-treated with AZD2811 (16 nM) or DMSO for 24 h, were then treated for 8 h with 100 nM dex or ethanol. mRNA levels for the indicated GR target genes were measured by RT-qPCR and normalized to β-actin mRNA levels.
FIGS. 48A, 48B, 48C, 48D, 48E, and 48F show the effect of AURKB inhibitors on EHMT2 phosphorylation and dex-induced cell death. […] In each condition, the value measured with dex was normalized to the fluorescence value measured with ethanol. Percentage of survival is shown as the mean±SEM of 4 independent experiments and p-values for individual dex concentrations were calculated using a paired t-test. *p≤0.05, **p≤0.01, * * *p≤0.001. F-test comparing the two curves: p≤0.001. EC50s were calculated as the concentration at which half the cells remained alive, compare to vehicle controls. Error bars depict the SEM of 4 independent experiments and p-value was calculated to compare ZM treatment to DMSO using a paired t-test **p≤0.01, * * *p≤0.001. […] EC50s were calculated as the concentration at which half the cells remained alive, compare to vehicle controls. Error bars depict the SEM of 4 independent experiments and p-value was calculated to compare alisertib treatment to DMSO using a paired t-test. […] (E-F) RCH-ACV cells were treated with the indicated dex concentration in addition to 0.75 μM ZM447439 (FIG. 48E), 16 nM AZD2811 (FIG. 48F), or DMSO for 72 h, and cell survival was measured by a fluorescence metabolic assay. In each condition, the value measured with dex was normalized to the fluorescence value measured with ethanol. Percentage of survival is shown as the mean±SEM of 5 individual experiments and the p-value for each dex concentration was calculated using a paired t-test. *p≤0.05, **p≤0.01, * * *p≤0.001. F-test comparing the two curves: p≤0.001.
FIGS. 55A, 55B, and 55C show JIB-04 enhances GC-induced death of B-ALL cell line NALM6.

A further experiment concerns EHMT2 phosphorylation. The experiment can be described thus: Phosphorylation of EHMT2 in NALM-6 cells (pan ph-T immunoprecipitation, EHMT2 immunoblot). To be noted: NALM-6, 0.75 μM ZM447439, 24 h. As to the method: Cells were treated as indicated, and cell extracts were prepared in RIPA buffer ([…] Tris-HCl, pH 8, 150 mM NaCL, 1 mM EDTA, 1% NP-40, and 0.25% deoxycholate) supplemented with protease inhibitor tablets (Roche Molecular Biochemicals) and phosphatase inhibitors (1 mM NaF, 1 mM Na3VO4, and 1 mM β-glycerophosphate). Protein extracts were incubated overnight at 4° C. with shaking with 1 μg of antibodies against EHMT2 (Sigma G6919), EHMT1 (Millipore 09-078), or pan phospho-threonine (Millipore AB1607). Protein A/G plus agarose beads (Santa Cruz sc-2003) were added, and the mixture was incubated 2 h at 4° C. The immunoprecipitates were separated on SDS-PAGE. […]
FIGS. 48A, 48B, 48C, 48D, 48E, and 48F show the effect of AURKB inhibitors on EHMT2 phosphorylation and dex-induced cell death. […] In each condition, the value measured with dex was normalized to the fluorescence value measured with ethanol. Percentage of survival is shown as the mean±SEM of 4 independent experiments and p-values for individual dex concentrations were calculated using a paired t-test. *p≤0.05, **p≤0.01, * * *p≤0.001. […] EC50s were calculated as the concentration at which half the cells remained alive, compare to vehicle controls. Error bars depict the SEM of 4 independent experiments and p-value was calculated to compare ZM treatment to DMSO using a paired t-test **p≤0.01, * * *p≤0.001. […]
On the technique in general: In western blotting, separated proteins are transferred to a membrane and probed.

Regarding `Clc1ccc(N/N=C(\c2ccccc2)c2ccccn2)nc1` [JIB-04, 5-chloro-N-[(E)-[phenyl(pyridin-2-yl)methylidene]amino]pyridin-2-amine], in the experiment on G9a methylation, the “level of G9a methylation” value is “increased”. Moreover, the “GC-induced death of NALM6 cells” value with NALM6 cells (72 hours with various dex concentrations plus KDM inhibitor) was “effectively enhanced”.

On to `COc1cc2c(Nc3ccc(NC(=O)c4ccccc4)cc3)ncnc2cc1OCCCN1CCOCC1` [ZM447439, N-[4-[[6-methoxy-7-(3-morpholin-4-ylpropoxy)quinazolin-4-yl]amino]phenyl]benzamide], for which the “sensitivity of NALM6 cells to dex-induced apoptosis” value in the experiment with NALM6 cells (0.75 µM ZM447439 stronger effect than 0.625 μM, 72 h) is “significantly sensitized”. Besides, the “phosphorylation of EHMT2” value in the experiment on EHMT2 phosphorylation is listed as “reduced”.
